# Where “and” joins values, the source holds several entries; their conditions need not be identical. Equal entries are not always repeated.
# Test: Biodistribution study in male Wistar rats
# Format: in vivo, rat
# Conditions: for % ID/g × kg in Blood / % ID/g × kg in Cerebellum / % ID/g × kg in Cerebrum + Cerebellum / % ID/g × kg in Cerebrum total / % ID/g × kg in Cortex / % ID/g × kg in Heart / % ID/g × kg in Hippocampus / % ID/g × kg in Kidneys / % ID/g × kg in Liver / % ID/g × kg in Lungs / % ID/g × kg in Rest of cerebrum / % ID/g × kg in Spleen + Pancreas / % ID/g × kg in Striatum: normalized for body weight
# Description: (§1) The biodistribution study of [^18F]B-1 was carried out in male Wistar rats (body weight 250-350 g) at 2 min, 30 min and 60 min post injection (p.i.) (n=3/time point). Rats were injected with about 1.1 MBq of the tracer via tail vein under anesthesia (2.5% Isoflurane in O2 at 1 L/min flow rate) and sacrificed by decapitation at above specified time points. Blood and major organs were collected in tared tubes and weighed. The radioactivity in blood, organs and other body parts was measured using an automated gamma counter The distribution of radioactivity in different parts of the body at different time points p.i. of the tracer was calculated and expressed as percentage of injected dose (% ID), and as percentage of injected dose per gram tissue (% ID/g) for the selected organs. % ID is calculated as cpm in organ/total cpm recovered. For calculation of total radioactivity in blood, blood mass was assumed to be 7% of the body mass.
# as §1, with “[^18F]B-2” for “[^18F]B-1”, “270-340” for “250-350”
# [1] = 60 min p.i., % ID/g values normalized for the body weight
structure (smiles),measurement,setting,value
[18F]CCCn1cc(-c2ccncc2)c(-c2ccc(OCc3ccc4ccccc4n3)cc2)n1 [[^18F]B-1],% ID/g × kg in Blood,30 min p.i.,0.03 ± 0.00 % ID/g × kg
same,% ID/g × kg in Cerebellum,30 min p.i.,0.023 ± 0.00 % ID/g × kg
same,% ID/g × kg in Cerebrum + Cerebellum,30 min p.i.,0.03 ± 0.00 % ID/g × kg
same,% ID/g × kg in Cerebrum total,30 min p.i.,0.032 ± 0.00 % ID/g × kg
same,% ID/g × kg in Cortex,30 min p.i.,0.027 ± 0.01 % ID/g × kg
same,% ID/g × kg in Heart,30 min p.i.,0.07 ± 0.00 % ID/g × kg
same,% ID/g × kg in Hippocampus,30 min p.i.,0.021 ± 0.00 % ID/g × kg
same,% ID/g × kg in Kidneys,30 min p.i.,0.16 ± 0.01 % ID/g × kg
same,% ID/g × kg in Liver,30 min p.i.,1.03 ± 0.08 % ID/g × kg
same,% ID/g × kg in Lungs,30 min p.i.,0.35 ± 0.03 % ID/g × kg
same,% ID/g × kg in Rest of cerebrum,30 min p.i.,0.030 ± 0.00 % ID/g × kg
same,% ID/g × kg in Spleen + Pancreas,30 min p.i.,0.07 ± 0.00 % ID/g × kg
same,% ID/g × kg in Striatum,30 min p.i.,0.106 ± 0.00 % ID/g × kg
same,% ID in Blood,60 min p.i.,1.9 % ID and 1.94 ± 0.1 % ID
same,% ID in Carcass,60 min p.i.,27.96 ± 0.7 % ID
same,% ID in Cerebellum,60 min p.i.,0.012 ± 0.00 % ID
same,% ID in Cerebrum total,60 min p.i.,0.101 ± 0.01 % ID
same,% ID in Cortex,60 min p.i.,0.012 ± 0.00 % ID
same,% ID in Heart,60 min p.i.,0.17 ± 0.0 % ID
same,% ID in Hippocampus,60 min p.i.,0.003 ± 0.00 % ID
same,% ID in Intestines,60 min p.i.,14.72 ± 4.1 % ID
same,% ID in Kidneys,60 min p.i.,1.45 ± 0.1 % ID
same,% ID in Liver,60 min p.i.,41.44 ± 1.5 % ID
same,% ID in Lungs,60 min p.i.,0.32 ± 0.0 % ID
same,% ID in Rest of cerebrum,60 min p.i.,0.071 ± 0.01 % ID
same,% ID in Spleen + Pancreas,60 min p.i.,0.31 ± 0.0 % ID
same,% ID in Stomach,60 min p.i.,10.00 ± 2.5 % ID
same,% ID in Striatum,60 min p.i.,0.015 ± 0.00 % ID
same,% ID in Urine,60 min p.i.,1.87 ± 0.2 % ID
same,% ID present in the liver and intestines in total,60 min p.i.,56 % ID
same,% ID present in the urinary system,60 min p.i.,~3.3 % ID
same,% ID/g in Blood,60 min p.i.,0.08 ± 0.00 % ID/g
same,% ID/g in Cerebellum,60 min p.i.,0.04 ± 0.00 % ID/g
same,% ID/g in Cerebrum + Cerebellum,60 min p.i.,0.07 ± 0.00 % ID/g
same,% ID/g in Cerebrum total,60 min p.i.,0.07 ± 0.00 % ID/g
same,% ID/g in Cortex,60 min p.i.,0.06 ± 0.00 % ID/g
same,% ID/g in Heart,60 min p.i.,0.16 ± 0.00 % ID/g
same,% ID/g in Hippocampus,60 min p.i.,0.05 ± 0.01 % ID/g
same,% ID/g in Kidneys,60 min p.i.,0.46 ± 0.02 % ID/g
same,% ID/g in Liver,60 min p.i.,3.11 ± 0.06 % ID/g
same,% ID/g in Lungs,60 min p.i.,0.20 ± 0.02 % ID/g
same,% ID/g in Rest of cerebrum,60 min p.i.,0.07 ± 0.00 % ID/g
same,% ID/g in Spleen + Pancreas,60 min p.i.,0.19 ± 0.01 % ID/g
same,striatum/blood ratio,[1],3.0
same,striatum/cerebellum ratio,[1],5.6
same,striatum/cortex ratio,[1],4.4
same,striatum/hippocampus ratio,[1],5.2
same,% ID/g × kg in Blood,60 min p.i.,0.03 ± 0.00 % ID/g × kg
same,% ID/g × kg in Cerebellum,60 min p.i.,0.015 ± 0.00 % ID/g × kg
same,% ID/g × kg in Cerebrum + Cerebellum,60 min p.i.,0.02 ± 0.00 % ID/g × kg
same,% ID/g × kg in Cerebrum total,60 min p.i.,0.024 ± 0.00 % ID/g × kg
same,% ID/g × kg in Cortex,60 min p.i.,0.019 ± 0.00 % ID/g × kg
same,% ID/g × kg in Heart,60 min p.i.,0.05 ± 0.00 % ID/g × kg
same,% ID/g × kg in Hippocampus,60 min p.i.,0.016 ± 0.00 % ID/g × kg
same,% ID/g × kg in Kidneys,60 min p.i.,0.16 ± 0.01 % ID/g × kg
same,% ID/g × kg in Liver,60 min p.i.,1.04 ± 0.02 % ID/g × kg
same,% ID/g × kg in Lungs,60 min p.i.,0.07 ± 0.01 % ID/g × kg
same,% ID/g × kg in Rest of cerebrum,60 min p.i.,0.022 ± 0.00 % ID/g × kg
same,% ID/g × kg in Spleen + Pancreas,60 min p.i.,0.06 ± 0.01 % ID/g × kg
same,% ID/g × kg in Striatum,60 min p.i.,0.083 ± 0.01 % ID/g × kg
same,"Clearance, 2 min/30 min ratio for % ID/g values",Blood,1.60
same,"Clearance, 2 min/60 min ratio for % ID/g values",Blood,2.28
same,"Clearance, 2 min/30 min ratio for % ID/g values",Cerebellum,4.37
same,"Clearance, 2 min/60 min ratio for % ID/g values",Cerebellum,8.8 and 8.81
same,"Clearance, 2 min/30 min ratio for % ID/g values",Cerebrum total,2.54
same,"Clearance, 2 min/60 min ratio for % ID/g values",Cerebrum total,4.34
same,"Clearance, 2 min/30 min ratio for % ID/g values",Cortex,3.81
same,"Clearance, 2 min/60 min ratio for % ID/g values",Cortex,7.19
same,"Clearance, 2 min/30 min ratio for % ID/g values",Hippocampus,2.54
same,"Clearance, 2 min/60 min ratio for % ID/g values",Hippocampus,4.33
same,"Clearance, 2 min/30 min ratio for % ID/g values",Rest of cerebrum,2.54
same,"Clearance, 2 min/60 min ratio for % ID/g values",Rest of cerebrum,4.53
same,"Clearance, 2 min/30 min ratio for % ID/g values",Striatum,0.97
same,"Clearance, 2 min/60 min ratio for % ID/g values",Striatum,1.6 and 1.62
same,% ID present in the carcass,at all time points examined,~26 % ID
